# Assay results published in US5976830A, “Methods of producing doxorubicin” (priority 1996, dated 1999).
# Tested on: Streptomyces lividans TK24(pANT195)
# Assay: Viability of doxA-transformed culture incubated with daunomycin
# Type: cell-based
# Method: Cultures of S. lividans TK24 containing plasmid pANT195 and control cultures of S. lividans TK24 containing plasmid pANT849 were grown on R2YE agar medium containing 10 μg/ml of thiostrepton in standard 100 mm×15 mm plastic petri dishes for 5 days at 30° C., at which time the entire cultures had sporulated. The spores from one entire petri plate were used to inoculate 50 ml of modified YEME medium in 250 ml erlenmeyer flasks. Then 10 μg/ml thiostrepton in DMSO were added to the medium. The thiostrepton was added as selective pressure to maintain the plasmids. The cultures were grown for 48 hours at 30° C. with rotary shaking at 250 rpm, one inch throw on the shaker. After 48 hours, a 1.5 ml sample was removed for plasmid analysis to ensure the presence and size of the insert DNA containing the doxA gene using a "mini-prep" procedure according to Carter, M. J., and I. D. Milton, (1993), "An Inexpensive and Simple Method for DNA Purification on Silica Particles," Nucleic Acids Res., Vol. 21, page 1044. Restriction endonuclease digestion with BspEI and agarose gel electrophoresis generated 1.7 kbp, 2.2 kbp, and 3.14 kbp fragments which indicated an intact plasmid and insert. Then a 10 μL solution containing 100 μg of filter sterilized daunomycin-HCl in distilled water was added to the cultures for a final concentration of 2.0 μg of daunomycin per ml of culture broth. Incubation was continued for 72 hours.
# The procedure of Example 1 was repeated, with the following exceptions. The cultures were grown at 28° C. rather than 30° C., for 48 hours. After 48 hours of growth, 500 μg of daunomycin-HCl were added to the cultures for a final concentration of 10.0 μg/ml of daunomycin followed by further incubation for 36 hours, instead of 72 hours.
# A 50 ml culture of Streptomyces lividans TK24(pANT195) culture was prepared as in Example 1. […] The cultures were incubated for 48 hours and then extracted as described in Example 1 and analyzed by HPLC and TLC. […]
structure (smiles),measurement,setting,value
COc1cccc2c1C(=O)c1c(O)c3c(c(O)c1C2=O)C[C@@](O)(C(C)=O)C[C@@H]3O[C@H]1C[C@H](N)[C@H](O)[C@H](C)O1 [daunomycin],state of the cultures after incubation with daunomycin,"2 μg/ml of daunomycin, cultures of Examples 1 and 2",fully viable
same,toxicity to the host,"16.7 μg/ml of daunomycin, about 8-fold concentrated mycelia in MOPS buffer pH 7.2 (Example 10)",toxic to the host
same,state of the doxA transformed culture at the end of incubation,"22.2 μg/ml daunomycin, 48 hours, 28° C., YEME medium (Example 3)",virtually dead
